Experimental data: patent US8658604B2, “Template-fixed beta-hairpin peptidomimetics with protease inhibitory activity” (Polyphor Ltd, priority 2005, dated 2014)
Read-outs that look alike come from different tables or passages of the source. Where a SMILES comes first, the peptide text is derived from it.

How the values were obtained:
[1] = test system: Tryptase, from human lung; test: Enzymatic assay, tryptase; conditions: at 100 μM
[2] = target: T1, CathepsinG, from human neutrophils (Homo sapiens, UniProt P08311); test: Enzymatic assay, cathepsin G
T1 sequence (P08311 21-244): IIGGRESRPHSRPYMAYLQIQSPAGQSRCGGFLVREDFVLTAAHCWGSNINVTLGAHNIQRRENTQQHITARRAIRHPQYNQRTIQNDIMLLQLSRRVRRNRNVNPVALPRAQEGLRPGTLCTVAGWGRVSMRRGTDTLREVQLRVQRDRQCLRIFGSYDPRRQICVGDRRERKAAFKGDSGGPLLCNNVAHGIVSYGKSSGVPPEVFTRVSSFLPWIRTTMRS

[3] = target: Trypsin, from human pancreas (Homo sapiens, UniProt P07477); test: Enzymatic assay, trypsin; conditions: at 100 μM
[4] = format: in vitro ADME; conditions: 10 µM
Procedure: 405 μl of plasma/albumin solution were placed in a polypropylene (PP) tube and spiked with 45 μl of compound from a […] solution B, derived from 135 μl of PBS and 15 μl of 1 mM peptide in PBS, pH 7.4. 150 μl aliquots were transferred into individual wells of the 10 kDa filter plate (Millipore MAPPB 1010 Biomax membrane). For “0 minutes controls”: 270 μl of PBS were placed in a PP tube and 30 μl of stock solution B was added and vortexed. 150 μl of control solution were placed into one well of the filter plate and served as “filtered control”.
Further 150 μl of control solution were placed directly into a receiver well (reserved for filtrate) and served as “not-filtered control”. The entire plate including evaporation lid was incubated for 60 min at 37° C. Plasma samples (rat plasma: Harlan Sera lab UK, human plasma: Blutspendezentrum Zürich) were centrifuged at least for 2 h at 4300 rpm (3500 g) and 15° C. in order to yield 100 filtrate. For “serum albumin”-samples (freshly prepared human albumin: Sigma A-4327, rat albumin: Sigma A-6272, all at 40 mg/ml concentration in PBS) approximately 1 hour of centrifugation was sufficient. The filtrates in the receiver PP plate were analysed by LC/MS as follower follows: Column: Jupiter C18 (Phenomenex), mobile phases: (A) 0.1% formic acid in water and (B) acetonitrile, gradient: 5%-100% (B) in 2 minutes, electrospray ionization, MRM detection (triple quadrupole). The peak areas were determined and triplicate values were averaged. The binding was expressed in percent of the (filtered and not-filtered time point 0 min) control 1 and 2 by: 100−(100×T60/T0). The average from these values was then calculated.

[5] = target: Thrombin, from Human Plasma (Homo sapiens, UniProt P00734); test: Enzymatic assay, thrombin
[6] = target: Urokinase from human urine (Homo sapiens, UniProt P00749); test: Enzymatic assay, urokinase
[7] = target: Chymotrypsin, from human pancreas (Homo sapiens, UniProt P17538); test: Enzymatic assay, chymotrypsin; conditions: at 100 μM
Chymotrypsin, from human pancreas, sequence (P17538 19-263): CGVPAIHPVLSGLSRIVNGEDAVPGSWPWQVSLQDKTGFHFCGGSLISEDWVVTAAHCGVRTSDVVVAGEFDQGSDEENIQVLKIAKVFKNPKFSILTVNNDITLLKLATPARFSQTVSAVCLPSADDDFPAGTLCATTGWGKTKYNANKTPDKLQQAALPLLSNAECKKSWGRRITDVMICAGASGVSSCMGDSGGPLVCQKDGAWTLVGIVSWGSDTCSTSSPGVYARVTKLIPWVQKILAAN

[8] = target: Coagulation Factor Xa, from uman plasma (Homo sapiens, UniProt P00742); test: Enzymatic assay, coagulation factor Xa
Coagulation Factor Xa, from uman plasma, sequence (P00742 235-488 limits assumed): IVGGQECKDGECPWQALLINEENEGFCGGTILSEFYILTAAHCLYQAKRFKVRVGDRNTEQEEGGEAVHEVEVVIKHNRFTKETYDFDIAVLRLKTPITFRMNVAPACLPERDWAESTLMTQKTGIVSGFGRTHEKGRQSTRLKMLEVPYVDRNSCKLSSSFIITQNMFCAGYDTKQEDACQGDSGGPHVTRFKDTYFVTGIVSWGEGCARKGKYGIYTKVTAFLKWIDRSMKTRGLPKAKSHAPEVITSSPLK
Coagulation Factor Xa, from uman plasma, sequence (P00742 41-179 limits assumed): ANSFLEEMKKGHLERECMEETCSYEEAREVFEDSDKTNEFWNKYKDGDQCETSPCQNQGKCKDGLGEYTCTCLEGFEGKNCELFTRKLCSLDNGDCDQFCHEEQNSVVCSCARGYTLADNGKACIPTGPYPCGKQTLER

Chymase, from human skin = target: T2, Chymase, from human skin (Homo sapiens, UniProt P23946); test: Enzymatic assay, chymase
T2 sequence (P23946 22-247): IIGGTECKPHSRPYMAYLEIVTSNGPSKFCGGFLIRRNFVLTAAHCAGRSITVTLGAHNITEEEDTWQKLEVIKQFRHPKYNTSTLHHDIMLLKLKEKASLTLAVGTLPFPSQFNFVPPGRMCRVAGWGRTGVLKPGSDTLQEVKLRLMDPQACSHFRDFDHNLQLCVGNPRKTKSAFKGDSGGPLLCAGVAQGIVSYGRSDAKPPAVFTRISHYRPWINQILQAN

[9] = target: T3, Elastase from human neutrophils (Homo sapiens, UniProt P08246); test: Enzymatic assay, elastase
T3 sequence (P08246 30-267): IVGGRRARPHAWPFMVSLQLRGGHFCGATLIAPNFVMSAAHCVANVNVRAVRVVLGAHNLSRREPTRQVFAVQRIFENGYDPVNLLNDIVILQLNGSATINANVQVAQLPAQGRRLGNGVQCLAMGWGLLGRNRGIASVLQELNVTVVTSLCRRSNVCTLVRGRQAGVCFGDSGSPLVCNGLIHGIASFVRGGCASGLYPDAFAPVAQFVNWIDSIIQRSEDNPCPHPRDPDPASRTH

[10] = test system: human red blood cells (hRBC); test: Hemolysis
Procedure: The peptides were tested for their hemolytic activity against human red blood cells (hRBC). Fresh hRBC were washed three times with phosphate buffered saline (PBS) by centrifugation for 10 min at 2000×g. Peptides at a concentration of 100 μM were incubated with 20% v/v hRBC for 1 hour at 37° C. The final erythrocyte concentration was approximately 0.9×10^9 cells per ml. A value of 0% and, respectively, 100% cell lysis was determined by incubation of the hRBC in the presence of PBS alone and, respectively, 0.1% Triton X-100 in H2O. […] The 100% lysis value (OD540H20) gave an OD540 of approximately 1.3-1.8. Percent hemolysis was calculated as follows: (OD540peptide/OD540H20)×100%.

HELA cells (Acc57) = test: Cytotoxicity assay (MTT reduction), HELA cells; format: cell-based; conditions: Hela cells
Outline: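 HeLa cells were grown for 24 h, then exposed to peptides at 12.5, 25 and 50 μM in triplicate for 48 h at 37 °C. MTT reduction was read at 595 nm and growth % calculated relative to time-zero wells. LC50 interpolated by linear trend at −50% growth, GI50 at 50%.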

SMILES	Tryptase At 100 μM % [1] [%]	Cathepsin G at 100 μM % ([2]; at 100 μM) [at 100%]	Trypsin at 100 μM % [3] [%]	Stability human Plasma t1/2 [4] [h]	Stability rat Plasma t1/2 [4] [h]	Thrombin at 100 μM % [5] [%]	Urokinase at 100 μM % [6] [%]	Chymotrypsin at 100 μM % [7] [%]	FXa at 100 μM % [8] [%]	Chymase at 100 μM % (Chymase, from human skin) [%]	IC50 ([9]; Elastase IC50) [µM]	Tryptase at 100 μM % [1] [%]	Hemolysis at 100 μM % [10] [%]	IC50 ([2]; Cathepsin G IC50) [µM]	Cytotoxicity LC50/GI50 Hela cells (HELA cells (Acc57)) [µM]	IC50 ([2]; read-out: Cathepsin G IC50) [µM]	IC50 ([9]; read-out: Elastase IC50) [µM]
C[C@@H]1NC(=O)[C@H]([C@@H](C)O)NC(=O)[C@@H]2CSSC[C@H](NC(=O)[C@H](CCC(N)=O)NC(=O)[C@@H]3CCCN3C(=O)[C@@H]3CCCN3C(=O)[C@H](CC3CCCCC3)NC(=O)[C@H](CO)NC1=O)C(=O)N[C@@H](CCC(N)=O)C(=O)N1CCC[C@@H]1C(=O)N1CCC[C@H]1C(=O)N[C@@H](CCc1ccccc1)C(=O)N2 [Ex. 158] (HELM PEPTIDE1{[O=C([C@H](CCc1ccccc1)N[*:1])[*:2]].C.T.A.S.[Cha].P.P.Q.C.Q.[dP].P}$PEPTIDE1,PEPTIDE1,2:R3-10:R3|PEPTIDE1,PEPTIDE1,1:R1-13:R2$$$V2.0)	13	55	8	5	5	2	10	93	1	0	0.0071						
CC[C@H](C)[C@@H]1NC(=O)[C@H](C)NC(=O)[C@@H]2CCCN2C(=O)[C@H](CC(=O)O)NC(=O)[C@H](CO)NC(=O)[C@H](CCCCN)NC(=O)[C@H]([C@@H](C)O)NC(=O)[C@@H]2CSSC[C@H](NC1=O)C(=O)N[C@@H](CCCNC(=N)N)C(=O)N1CCC[C@@H]1C(=O)N1CCC[C@H]1C(=O)N[C@@H]([C@@H](C)CC)C(=O)N2 [Ex. 14] (HELM PEPTIDE1{I.C.T.K.S.D.P.A.I.C.R.[dP].P}$PEPTIDE1,PEPTIDE1,2:R3-10:R3|PEPTIDE1,PEPTIDE1,1:R1-13:R2$$$V2.0)			88			8.7	5.4	0	6	42.3	> 100	84.2	0	0.052	100		
CC[C@H](C)[C@@H]1NC(=O)[C@H](C)NC(=O)[C@@H]2CCCN2C(=O)[C@H](CC(=O)O)NC(=O)[C@H](CO)NC(=O)[C@H](CCCCN)NC(=O)[C@H]([C@@H](C)O)NC(=O)[C@@H]2CSSC[C@H](NC1=O)C(=O)N[C@@H](CCCNC(=N)N)C(=O)N1CCC[C@@H]1C(=O)N1CCC[C@H]1C(=O)N[C@@H]([C@@H](C)CC)C(=O)N2 [Ex. 52] (HELM PEPTIDE1{I.C.T.K.S.D.P.A.I.C.R.[dP].P}$PEPTIDE1,PEPTIDE1,2:R3-10:R3|PEPTIDE1,PEPTIDE1,1:R1-13:R2$$$V2.0)			86			8.7	5.4	0	6	42.3		84.2	0		100	0.052	> 100
CC[C@H](C)[C@@H]1NC(=O)[C@@H]2CCCN2C(=O)[C@@H]2CCCN2C(=O)[C@H](CC(=O)O)NC(=O)[C@H](CO)NC(=O)[C@H](CCCCN)NC(=O)[C@H]([C@@H](C)O)NC(=O)[C@@H]2CSSC[C@H](NC1=O)C(=O)N[C@@H](CO)C(=O)N1CCC[C@@H]1C(=O)N[C@@H](CCC(=O)O)C(=O)N[C@@H](Cc1ccccc1)C(=O)N2 [Ex. 64] (HELM PEPTIDE1{F.C.T.K.S.D.P.P.I.C.S.[dP].E}$PEPTIDE1,PEPTIDE1,2:R3-10:R3|PEPTIDE1,PEPTIDE1,1:R1-13:R2$$$V2.0)			87			2.3	3	0	0	0	> 100	0	0	0.045	59		
CC[C@H](C)[C@@H]1NC(=O)[C@@H]2CCCN2C(=O)[C@@H]2CCCN2C(=O)[C@H](CC(=O)O)NC(=O)[C@H](CO)NC(=O)[C@H](CCCCN)NC(=O)[C@H]([C@@H](C)O)NC(=O)[C@@H]2CSSC[C@H](NC1=O)C(=O)N[C@@H](CC(=O)O)C(=O)N1CCC[C@@H]1C(=O)N1CCC[C@H]1C(=O)N[C@@H](C1CCCCC1)C(=O)N2 [Ex. 39] (HELM PEPTIDE1{[O=C([C@@H](N[*:1])C1CCCCC1)[*:2]].C.T.K.S.D.P.P.I.C.D.[dP].P}$PEPTIDE1,PEPTIDE1,2:R3-10:R3|PEPTIDE1,PEPTIDE1,1:R1-13:R2$$$V2.0)			94			2	2	7	0	0	> 100	34	0	0.038	98		
CC[C@H](C)[C@@H]1NC(=O)[C@@H]2CCCN2C(=O)[C@@H]2CCCN2C(=O)[C@H](CC(=O)O)NC(=O)[C@H](CO)NC(=O)[C@H](CCCCN)NC(=O)[C@H]([C@@H](C)O)NC(=O)[C@@H]2CSSC[C@H](NC1=O)C(=O)N[C@@H](CO)C(=O)N1CCC[C@@H]1C(=O)N1CCC[C@H]1C(=O)N[C@@H](Cc1ccccc1)C(=O)N2 [Ex. 4] (HELM PEPTIDE1{F.C.T.K.S.D.P.P.I.C.S.[dP].P}$PEPTIDE1,PEPTIDE1,2:R3-10:R3|PEPTIDE1,PEPTIDE1,1:R1-13:R2$$$V2.0)			96			0	5.4	1.8	2.4	0	> 100	0	0	0.091	100		
CC[C@H](C)[C@@H]1NC(=O)[C@@H]2CCCN2C(=O)[C@@H]2CCCN2C(=O)[C@H](CC(=O)O)NC(=O)[C@H](CO)NC(=O)[C@H](CCCCN)NC(=O)[C@H]([C@@H](C)O)NC(=O)[C@@H]2CSSC[C@H](NC1=O)C(=O)N[C@@H]([C@@H](C)O)C(=O)N1CCC[C@@H]1C(=O)N1CCC[C@H]1C(=O)N[C@@H](C1CCCCC1)C(=O)N2 [Ex. 38] (HELM PEPTIDE1{[O=C([C@@H](N[*:1])C1CCCCC1)[*:2]].C.T.K.S.D.P.P.I.C.T.[dP].P}$PEPTIDE1,PEPTIDE1,2:R3-10:R3|PEPTIDE1,PEPTIDE1,1:R1-13:R2$$$V2.0)			96			0	1	4	0	1	> 100	11	0	0.031	100		
